Laboratory results as given in PMC10932281, “A Combination of β-Aescin and Newly Synthesized Alkylamidobetaines as Modern Components Eradicating the Biofilms of Multidrug-Resistant Clinical Strains of Candida glabrata” (International Journal of Molecular Sciences, 2024).
In brackets after ≈: the same amount, converted by molar mass. Like-named read-outs stand apart in the source and are kept apart here.

Experiments:
[1] = tested on: Balb/3T3 mouse embryonic fibroblasts; assay: Cell proliferation assay (MTT test); assay type: cell-based; design: Survival of the tested cell line: dose or concentration left out as unconfirmed; settings: 24 h
Procedure: Balb/3T3 (ATCC CCL-163) mouse embryonic fibroblasts were cultured in DMEM medium supplemented with 10% fetal bovine serum, 1 mM L-glutamine, and a 1% penicillin/streptomycin solution and were used for our cytotoxicity studies. The cells were cultured at 37 °C and 5% CO2 until the cell density of 10^6 mL^−1 was obtained. Such cells were then seeded in 24-well tissue microplates (2 × 10^4 cells per well) and allowed to adhere overnight under the abovementioned conditions. Cytotoxicity tests were carried out on the cells prepared in this way.
The newly synthesized AABs (C9, C11, C13, and C15) were selected based on previous studies. They were analyzed at the concentrations of 0.25, 0.5, 1, 2, and 3 µM. […] The BALB-3T3 cells were treated with the prepared mixtures, dissolved in a complete cell culture medium, and then incubated for 24 h under the abovementioned conditions. Three independent replicates were performed for each combination of compounds.
The cytotoxic effect of the tested compounds in combination with β-AE was evaluated by measuring mitochondrial dehydrogenase activity using the MTT assay. After a 24 h incubation period, the medium supplemented with the 1mM MTT solution was added to each well. The cultures were continued for another 4 h under the conditions enriched with 5% CO2. After this time, the supernatant was collected, and MTT formazan was extracted from the cells using DMSO. The reaction was then stopped with Sörensen buffer (0.1 mol/L glycine; 0.1 mol/L NaCl; and pH 10.5). The percentage of cytotoxicity was calculated by comparing the absorbance values (λ = 560 nm) of the test sample to the control sample, which was untreated fibroblast cells. In the test performed, the negative control (C−) (sample not treated; PBS added) and positive control (C+) were fibroblast cells treated with 1% SDS [60].

[2] = tested on: C. glabrata 2586 clinical strain; assay: MIC90/MFC, EUCAST broth microdilution; assay type: cell-based, Candida glabrata
[3] = tested on: C. glabrata 2853 clinical strain; assay: MIC90/MFC, EUCAST broth microdilution; assay type: cell-based, Candida glabrata
C. glabrata 2586 biofilm = assay: Biofilm eradication on polystyrene, fluorescence microscopy (Syto9/PI); assay type: cell-based, Candida glabrata
Procedure: (§1) C. glabrata biofilm eradication on polystyrene surfaces was assessed according to the following procedure: 1 mL of C. glabrata culture, 10^6 CFU/mL in RMPI 1640 MOPS-buffered medium, was pipetted into the wells of a 48-well adherent plate. Cultures were incubated at 37 °C for 72 h with shaking (400 RPM). […] Non-treated cells were used as the control. This experiment was carried out in triplicate. The analysis of the biofilm eradication of C. glabrata strains on polystyrene surfaces was performed using fluorescence microscopy (FM). For further information, see Section 4.12. below.
(§2) The 72 h biofilm of C. glabrata strains on polystyrene surfaces was stained on 48-well adherent plates with 1 µL of propidium iodide (Ex λ = 543 nm/Em λ = 617 nm) and 1 µL of SYTO9 (Ex λ = 488 nm/Em λ = 503 nm) for 30 min using a LIVE/DEAD BacLight Bacterial Viability Kit (Thermo Fisher Scientific, Waltham, MA USA). Imaging was performed using a fluorescence microscope (FM) BX51 (Olympus, Tokyo, Japan) equipped with an Orca Flash 40 camera (Hamamatsu, Hamamatsu City, Japan) and 10× objective Plan APO. Scale bar = 100 µm. Detailed computer qualitative and quantitative analyses of the obtained pictures were performed by estimating the coverage area on the polystyrene plate (the percentage of the area occupied by the fungal biofilm). The cell viability analysis was performed by calculating the fluorescence intensity of the dyes (Syto9/PI) used. The acquired images were processed and analyzed using Fiji/ImageJ software ver. 1.53c (NIH, Bethesda, MD, USA). First, maximum intensity projections (MIPs) were obtained from stacks of images. The areas of the binary images were transferred into the original live and dead channel MIP images. The mean fluorescence intensities of all detected objects per field of view were calculated using ImageJ’s Analyze Threshold function (Software: ImageJ version 1.53 from Softonic).

[4] = tested on: C. glabrata ATCC 90030 biofilm; assay: as above; assay type: cell-based, Candida glabrata
Procedure: as §1, §2

C. glabrata 2853 biofilm = assay: as above; assay type: cell-based, Candida glabrata
Procedure: as §1, §2

C. glabrata 2586 = assay: Interaction of AABs (3 µM) with antifungal agents, modified checkerboard; assay type: cell-based, Candida glabrata
C. glabrata ATCC 90030 = assay: MIC90/MFC, EUCAST broth microdilution; assay type: cell-based, Candida glabrata
sheep red blood cells = assay: Hemolysis assay; assay type: cell-based
Procedure: This test was performed according to a modified method. The hemolytic activity of the compounds was determined using sheep red blood cells. The blood was centrifuged (2000 RPM; 15 min) and rinsed 3 times with PBS. A total of 25 µL of erythrocytes for each sample were added to 500 µL of PBS to obtain the final concentration for the newly synthesized AABs: 0.25 µM, 0.5 µM; 1 µM, 2 µM; and 3 µM, and for β-AE, obtaining the following final concentrations: 100 µg/mL; 250 µg/mL; 500 µg/mL; 750 µg/mL; and 1000 µg/mL. The negative control (C−) consisted of erythrocytes suspended in PBS, and the positive control consisted of erythrocytes suspended in a 1% SDS solution. The samples were incubated for 2 h at 37 °C with shaking at 140 RPM. After this time, the blood cells were centrifuged (10 min; 2500 RPM), and 300 μL of the supernatant was transferred into a 96-well titration plate. Absorbance measurements were performed at a wavelength of λ = 540 nm. Measurements were performed in 10 repetitions. Finally, the values that were obtained from the samples treated with the test compound (OD test) were normalized relative to the positive (100% lysis; OD (C+)) and negative (untreated; OD (C−)) control samples to give the hemolysis ratio (HR) by using the following equation: HR (%) = OD test−OD (C−)/OD (C+) − OD (C−) × 100%.

[5] = Nakaseomyces glabratus, AAB alone, read-out: MIC converted to

β-aescin
Survival of the tested cell line ([1]; 64–512): 83–85%
MFC [2]: 256 µg/mL
MIC90 [2]: 256 µg/mL
MFC [3]: 128 µg/mL
MIC90 [3]: 128 µg/mL
Biofilm Viability [%] 2586 Live (C. glabrata 2586 biofilm; 1 MIC β-AE, 72 h): 9.33%
Area of the biofilm (C. glabrata 2586 biofilm; β-AE 1 × MIC, 72 h, control 73.17%, listed as β-AE): 59.3%
Biofilm Viability [%] 90030 Live ([4]; 1 MIC β-AE, 72 h): 76.70%
Area of the biofilm ([4]; β-AE 1 × MIC, 72 h, control 88.77%): 68.98%
Biofilm Viability [%] 2853 Live (C. glabrata 2853 biofilm; 1 MIC β-AE, 72 h): 92.13%
Area of the biofilm (C. glabrata 2853 biofilm; β-AE 1 × MIC, 72 h, control 84.52%, listed as β-AE): 45.63%
Multiplicity factor (MF) with C9 (C. glabrata 2586; C9 3 µM): 2
MIC90 of antimycotic combined with C9 (C. glabrata 2586; C9 at constant 3 µM, dilutions in µg/mL): 128
Multiplicity factor (MF) with C11 (C. glabrata 2586; C11 3 µM): 2
MIC90 of antimycotic combined with C11 (C. glabrata 2586; C11 at constant 3 µM, dilutions in µg/mL): 128
Multiplicity factor (MF) with C13 (C. glabrata 2586; C13 3 µM): 2
MIC90 of antimycotic combined with C13 (C. glabrata 2586; C13 at constant 3 µM, dilutions in µg/mL): 128
Multiplicity factor (MF) with C15 (C. glabrata 2586; C15 3 µM): 2
MIC90 of antimycotic combined with C15 (C. glabrata 2586; C15 at constant 3 µM, dilutions in µg/mL): 128
MFC (C. glabrata ATCC 90030; ATCC 90030): 256 µg/mL
MIC90 (C. glabrata ATCC 90030; ATCC 90030): 128 µg/mL
Hemolysis (sheep red blood cells; 100 up to 1000 µg/mL, 2 h, 37 °C): hemolytic at all concentrations tested

CCCCCCCCCC(=O)N(C)CCC[N+](C)(C)CC(=O)[O-] [C9]
Surviving cells ([1]; 0.25 to 3 µM/mL): 100%
MIC90 ([2]; AAB alone): 3 µM/mL
MIC [2, 5]: 985 µg/mL (≈ 3000 µM)
MIC90 ([3]; AAB alone): 1 µM/mL
MIC [3, 5]: 328 µg/mL (≈ 1000 µM)
Biofilm surface area (C. glabrata 2586 biofilm; C9 combined with β-AE, optimal concentration configuration, control 73.17%): 2.1%
Percentage of live cells (C. glabrata 2586 biofilm; C9 in combination with β-AE, 72 h, control 97.99%): 1.93%
viability at 1 µM (C. glabrata 2586 biofilm; Nakaseomyces glabratus, 2586BIOFILM, AAB alone 1 μM, 72 h, read-out: Biofilm Viability [%] 2586 Live): 3.28%
viability at 2 µM (C. glabrata 2586 biofilm; Nakaseomyces glabratus, 2586BIOFILM, AAB alone 2 μM, 72 h, read-out: Biofilm Viability [%] 2586 Live): 3.01%
viability at 3 µM (C. glabrata 2586 biofilm; Nakaseomyces glabratus, 2586BIOFILM, AAB alone 3 μM, 72 h, read-out: Biofilm Viability [%] 2586 Live): 2.52%
Biofilm surface area ([4]; C9 combined with β-AE, optimal concentration configuration, control 88.77%): 1.37%
Percentage of live cells ([4]; C9 in combination with β-AE, 72 h, control 98.35%): 1.64%
viability at 1 µM ([4]; Nakaseomyces glabratus, ATCC90030, AAB alone 1 μM, 72 h, read-out: Biofilm Viability [%] 90030 Live): 83.6%
viability at 2 µM ([4]; Nakaseomyces glabratus, ATCC90030, AAB alone 2 μM, 72 h, read-out: Biofilm Viability [%] 90030 Live): 23.8%
viability at 3 µM ([4]; Nakaseomyces glabratus, ATCC90030, AAB alone 3 μM, 72 h, read-out: Biofilm Viability [%] 90030 Live): 21.4%
Biofilm surface area (C. glabrata 2853 biofilm; C9 combined with β-AE, optimal concentration configuration, control 84.52%): 1.12%
Percentage of live cells (C. glabrata 2853 biofilm; C9 in combination with β-AE, 72 h, control 97.46%): 3.33%
viability at 1 µM (C. glabrata 2853 biofilm; Nakaseomyces glabratus, 2853BIOFILM, AAB alone 1 μM, 72 h, read-out: Biofilm Viability [%] 2853 Live): 82.2%
viability at 2 µM (C. glabrata 2853 biofilm; Nakaseomyces glabratus, 2853BIOFILM, AAB alone 2 μM, 72 h, read-out: Biofilm Viability [%] 2853 Live): 76.2%
viability at 3 µM (C. glabrata 2853 biofilm; Nakaseomyces glabratus, 2853BIOFILM, AAB alone 3 μM, 72 h, read-out: Biofilm Viability [%] 2853 Live): 66.4%
MIC90 (C. glabrata ATCC 90030; ATCC 90030, AAB alone): 3 µM/mL
MIC (C. glabrata ATCC 90030; Nakaseomyces glabratus, ATCC90030, reference strain, AAB alone, read-out: MIC converted to): 985 µg/mL (≈ 3000 µM)
Hemolysis (sheep red blood cells; all concentrations tested (0.25 up to 3 µM)): not hemolytic at all concentrations tested
